pIC50, pKd: −log10 of the molar value.
What was measured:
CDK9/Cyclin T1 = molecular target: T1, CDK9/Cyclin T1 (Homo sapiens, UniProt P50750); experiment: LanthaScreen Eu Kinase Binding Assay, CDK9/Cyclin T1; details: tracer 236, read-out: CDK9/Cyclin T1 (activity range), Kd
T1 construct: His; purchased Invitrogen
Procedure: (§1) This protocol describes how the LanthaScreen Eu Kinase Binding Assay was performed to determine dissociation constants (Kd) of compounds of general formula (I) and CDK/Cyclin complexes. The principle behind this assay is based upon the binding and displacement of an Alexa Fluor 647-labeled tracer, which binds to the active site of kinases. Binding of the tracer to the kinase is detected using a Eu-labeled antibody. Simultaneous binding of both the tracer and antibody to the kinase gives rise to a FRET-signal. Binding of an inhibitor to the kinase competes for binding with the tracer, resulting in a loss of FRET.
(§2) The compounds of general formula (I) summarized in Table 1 were diluted from a 10 mM DMSO stock solution 1:10 in a total volume of 15 μL DMSO. This compound predilution was then serial diluted 1:3 over 8 steps in DMSO and briefly spun down. Each compound solution was now diluted 1:33.33 in kinase buffer (HEPES: 20 mM, pH: 8.0; MgCl2: 10 mM; DTT: 1 mM; Brij-35: 0,01%), mixed thoroughly and spun down. For every sample, 5 μL of the diluted compound were mixed with 5 μL tracer working solution (e.g. 60 nM tracer 236 in kinase buffer for CDK2/Cyclin A) and 5 μL CDK/Cyclin/Anti-GST-AB-working solution (e.g. 15 nM CDK2/Cyclin A, 1:250 dilution of Anti-GST-AB in kinase buffer) in a well of a small volume 384 well plate (Corning Incorporated, Corning, N.Y., USA; order no. 3673). The tracer concentration was adjusted to its dissociation constant (Kd) for the CDK/Cyclin, which was 30 nM for CDK2/Cyclin A, CDK7/Cyclin H and CDK9/Cyclin T1, 20 nM for CDK8/Cyclin C, and 35 nM for CDK9/Cyclin K. For negative controls, in each well 5 μL of DMSO working solution (3% DMSO diluted in kinase buffer) was mixed with 5 μL Anti-GST-AB working solution (e.g. 1:250 dilution of Anti-GST-AB in kinase buffer for CDK2/Cyclin A) and 5 μL Tracer working solution (e.g. 60 nM Tracer 236 in kinase buffer for CDK2/Cyclin A). For positive controls, in each well 5 μL of DMSO working solution (3% DMSO diluted in kinase buffer) was mixed with 5 μL CDK/Cyclin/Anti-GST-AB-working solution: (e.g. 15 nM CDK2/Cyclin A, 1:250 dilution of Anti-GST-AB in kinase buffer) and 5 μL Tracer working solution (e.g. 60 nM Tracer 236 in kinase buffer for CDK2/Cyclin A). Positive and negative controls were calculated from at least 8 different sample wells. The 384 well plates were mixed in a Teleshaker plate mixer (Beckman Coulter, Brea, Calif., USA) at 2000 rpm for 40 sec, and incubated for 1 h at room temperature before reading. The FRET signal was measured at 340 nm excitation, 665 nm and 615 nm emission (for the kinase tracer and LanthaScreen Eu-AB, respectively) with an Envision spectrophotometer (Perkin Elmer, Waltham, Mass., USA) with […]. Kd values were determined from the sigmoidal dose response curves with the software Quattro Workflow (Quattro GmbH, Munich, Germany).

CDK9/Cyclin K = molecular target: T2, CDK9/Cyclin K (Homo sapiens, UniProt P50750); experiment: LanthaScreen Eu Kinase Binding Assay, CDK9/Cyclin K; details: tracer 236, read-out: CDK9/Cyclin K (activity range), Kd
T2 construct: His; purchased Invitrogen
T2 sequence (P50750 whole entry): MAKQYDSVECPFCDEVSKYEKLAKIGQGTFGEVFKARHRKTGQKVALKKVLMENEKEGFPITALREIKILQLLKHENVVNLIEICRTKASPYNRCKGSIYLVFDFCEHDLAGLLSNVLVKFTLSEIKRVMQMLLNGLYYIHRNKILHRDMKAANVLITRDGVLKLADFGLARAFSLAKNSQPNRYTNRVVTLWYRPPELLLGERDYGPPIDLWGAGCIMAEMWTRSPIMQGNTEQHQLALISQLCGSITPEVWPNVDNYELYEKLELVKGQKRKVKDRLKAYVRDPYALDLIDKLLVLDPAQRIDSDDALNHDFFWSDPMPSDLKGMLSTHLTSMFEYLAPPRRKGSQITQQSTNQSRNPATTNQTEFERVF
T2 sequence (O75909 1-357 isoform O75909-1 partner): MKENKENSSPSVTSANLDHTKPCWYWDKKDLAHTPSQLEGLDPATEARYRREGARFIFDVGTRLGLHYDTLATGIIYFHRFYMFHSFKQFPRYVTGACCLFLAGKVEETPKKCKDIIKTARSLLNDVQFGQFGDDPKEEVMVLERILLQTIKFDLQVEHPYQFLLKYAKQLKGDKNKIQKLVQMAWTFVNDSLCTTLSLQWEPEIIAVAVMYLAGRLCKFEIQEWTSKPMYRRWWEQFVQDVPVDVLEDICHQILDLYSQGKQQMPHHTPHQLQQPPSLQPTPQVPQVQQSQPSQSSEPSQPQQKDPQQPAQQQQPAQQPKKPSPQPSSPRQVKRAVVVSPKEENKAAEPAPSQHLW
Procedure: as §1, §2

CDK7/CyclinH/MAT1 = molecular target: T3, CDK7/CyclinH/MAT1 (Homo sapiens, UniProt P50613); experiment: LanthaScreen Eu Kinase Binding Assay, CDK7; details: tracer 236, read-out: CDK7 (activity range), Kd
T3 construct: His; purchased Carna Biosciences
T3 sequence (P50613 whole entry): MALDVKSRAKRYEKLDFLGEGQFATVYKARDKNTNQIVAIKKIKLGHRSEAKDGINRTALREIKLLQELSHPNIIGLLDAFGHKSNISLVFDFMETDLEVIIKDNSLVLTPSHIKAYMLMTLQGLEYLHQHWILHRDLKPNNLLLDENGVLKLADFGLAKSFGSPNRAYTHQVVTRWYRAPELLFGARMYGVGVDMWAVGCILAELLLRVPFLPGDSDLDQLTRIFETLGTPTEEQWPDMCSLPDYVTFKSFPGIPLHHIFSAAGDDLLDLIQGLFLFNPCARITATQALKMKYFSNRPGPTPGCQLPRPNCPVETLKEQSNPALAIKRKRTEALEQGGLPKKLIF
T3 sequence (P51946 whole entry partner): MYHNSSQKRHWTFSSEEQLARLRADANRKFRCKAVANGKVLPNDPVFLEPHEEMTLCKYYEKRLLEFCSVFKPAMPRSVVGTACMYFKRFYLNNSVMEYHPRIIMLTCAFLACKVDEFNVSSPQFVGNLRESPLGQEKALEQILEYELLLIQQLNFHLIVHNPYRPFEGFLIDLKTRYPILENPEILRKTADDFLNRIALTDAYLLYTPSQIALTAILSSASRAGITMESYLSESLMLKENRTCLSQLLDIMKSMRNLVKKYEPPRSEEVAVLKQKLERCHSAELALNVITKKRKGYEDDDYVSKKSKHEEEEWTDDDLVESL
T3 sequence (P51948 whole entry partner): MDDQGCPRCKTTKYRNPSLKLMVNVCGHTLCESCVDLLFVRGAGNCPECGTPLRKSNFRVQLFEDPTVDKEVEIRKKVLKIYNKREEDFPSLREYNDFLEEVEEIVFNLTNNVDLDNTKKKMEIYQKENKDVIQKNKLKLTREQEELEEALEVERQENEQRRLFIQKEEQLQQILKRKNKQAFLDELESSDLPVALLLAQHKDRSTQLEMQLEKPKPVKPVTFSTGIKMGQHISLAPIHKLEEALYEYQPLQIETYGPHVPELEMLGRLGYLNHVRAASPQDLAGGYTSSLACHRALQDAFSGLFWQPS
Procedure: as §1, §2

CDK2/CyclinA [1] = molecular target: T4, CDK2/CyclinA (Homo sapiens, UniProt P24941); experiment: LanthaScreen Eu Kinase Binding Assay, CDK2; details: tracer 236, read-out: CDK2 (activity range), Kd
T4 construct: GST; purchased Proqinase
Procedure: as §1, §2

CDK9 = molecular target: T5, CDK9 (Homo sapiens, UniProt P50750); experiment: Lance Ultra KinaSelect Assay, CDK9; format: biochemical; details: cyclin partner (T1 or K) not stated; read-out: CDK9 LANCE assay (activity range), IC50
T5 construct: purchased Invitrogen
T5 sequence (P50750 whole entry): as the sequence (P50750 whole entry) above
Procedure: (§3) 2. Measurement of half maximal inhibitory concentration to CDKs This protocol describes how the Lance Ultra KinaSelect Assay was performed to determine half maximal inhibitory concentration (1050) of compounds of general formula (I) and CDK/Cyclin complexes. The principle behind this enzymatic assay is based upon the phosphorylation of the ULight-Peptide Substrat. It is detected by using a specific
(§4) EU-labeled anti-phospho peptide antibody. The binding of the Eu-labeled anti-phospho peptide antibody to the phosphorylated ULight labeled peptide gives rise to a FRET-signal. Binding of an inhibitor to the kinase prevents phosphorylation of the ULight-MBP Substrat, resulting in a loss of FRET.
(§5) The compounds of general formula (I) summarized in Table 5 were diluted from a 10 mM DMSO stock solution 1:10 in a total volume of 15 μL DMSO. This compound predilution was then serial diluted 1:3 over 8 steps in DMSO and briefly spun down. Each compound solution was now diluted 1:20 in Enzymatic Buffer (HEPES: 50 mM, pH: 7.5; MgCl2: 10 mM; EGTA: 1 mM; DTT: 2 mM; Tween-20: 0.01%), mixed thoroughly and spun down. For every sample, 2 μL of the diluted compound were mixed with 6 μL CDK/Cyclin/Substrat solution and 2 μL ATP solution in a well of a small volume 384 well plate (Corning Incorporated, Corning, N.Y., USA; order no. 3673). The CDK/Cyclin was diluted to the appropriate concentration (see Table 3) and the ATP concentration was adjusted to its […] for the CDK/Cyclin, which was 3 μM for CDK2/Cyclin A, 20 μM for CDK1/Cyclin B1, 25 μM for CDK7/Cyclin H and CDK9/Cyclin T1, 55 μM for CDK6/Cyclin D3, 90 μM for CDK4/Cyclin D1 and 125 μM for CDK9/Cyclin K. For negative controls, in each well 2 μL of DMSO solution (1% final DMSO assay concentration) was mixed with 6 μL substrate solution (50 nM ULight MBP final assay concentration) and 2 μL ATP solution (appropriate final concentration see Table 3). For positive controls, in each well 2 μL of DMSO solution (1% final DMSO assay concentration) was mixed with 6 μL CDK/Cyclin/Substrat (appropriate final concentration see Table 3) and 2 μL Tracer ATP solution (appropriate final concentration see Table 3). Positive and negative controls were calculated from at least 8 different sample wells. The 384 well plates were mixed in a Teleshaker plate mixer (Beckman Coulter, Brea, Calif., USA) at 2000 rpm for 40 sec, and incubated for 1 h at room temperature. Before reading, 10 μL the detection buffer (Lance Detection Buffer 1×; EDTA: […]; Eu-Anti-P-MBP: see Table 3) was added. The FRET signal was measured at 340 nm excitation, 665 nm and 615 nm emission (for the kinase tracer and LanthaScreen Eu-AB, respectively) with an Envision spectrophotometer (Perkin Elmer, Waltham, Mass., USA) with 50 μs delay and 300 μs integration time. IC50 values were determined from the sigmoidal dose response curves with the software Quattro Workflow (Quattro GmbH, Munich, Germany).

CDK2/CyclinA [2] = molecular target: T4, CDK2/CyclinA; experiment: Lance Ultra KinaSelect Assay, CDK2; format: biochemical; details: ATP 3 μM; read-out: CDK2 LANCE assay (activity range), IC50
Procedure: as §3, §4, §5

T1 sequence (P50750 whole entry): as above
T1 sequence (O60563 whole entry partner): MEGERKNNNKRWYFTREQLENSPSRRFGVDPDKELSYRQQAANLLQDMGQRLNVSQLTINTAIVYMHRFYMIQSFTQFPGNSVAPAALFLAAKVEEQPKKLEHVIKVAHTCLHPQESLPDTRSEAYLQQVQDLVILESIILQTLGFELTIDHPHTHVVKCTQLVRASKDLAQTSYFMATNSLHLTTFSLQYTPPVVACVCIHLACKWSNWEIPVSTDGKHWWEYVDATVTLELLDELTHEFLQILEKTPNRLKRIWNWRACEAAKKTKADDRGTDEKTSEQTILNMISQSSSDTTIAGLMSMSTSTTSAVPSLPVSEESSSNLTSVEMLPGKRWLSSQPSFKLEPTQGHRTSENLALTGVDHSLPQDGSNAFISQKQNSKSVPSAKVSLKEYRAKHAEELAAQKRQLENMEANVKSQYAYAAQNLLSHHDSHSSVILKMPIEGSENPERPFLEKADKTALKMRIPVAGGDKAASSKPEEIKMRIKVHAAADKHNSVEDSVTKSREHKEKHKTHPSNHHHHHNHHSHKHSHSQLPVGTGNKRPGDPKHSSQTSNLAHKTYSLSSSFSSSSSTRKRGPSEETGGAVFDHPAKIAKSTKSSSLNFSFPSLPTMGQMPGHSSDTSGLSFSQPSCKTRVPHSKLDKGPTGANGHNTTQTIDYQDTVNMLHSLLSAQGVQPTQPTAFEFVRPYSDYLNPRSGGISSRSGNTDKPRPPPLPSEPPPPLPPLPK

Row | Compound | pKd (CDK9/Cyclin T1) | pKd (CDK9/Cyclin K) | pKd (CDK7/CyclinH/MAT1) | pKd (CDK2/CyclinA [1]) | pIC50 (CDK9) | pIC50 (CDK2/CyclinA [2])
1 | COC[C@H]1CCCCN1c1ncnc(Nc2cccc(CS(N)(=O)=O)c2)n1 [Compound B5, (R)-3-[(4-(2-Methoxymethylpiperidin-1-yl)-1,3,5-triazin-2-yl)amino]-benzenemethanesulfonamide] | 6.00 to 7.00 | 6.00 to 7.00 | < 5.00 | < 5.00 | – | –
2 | NS(=O)(=O)Cc1cccc(Nc2ncnc(N3CCOCC3)n2)c1 [Compound B10, 3-[(4-(Morpholin-4-yl)-1,3,5-triazin-2-yl)amino]benzenemethane sulfonamide] | 6.00 to 7.00 | 6.00 to 7.00 | 5.00 to 6.00 | 5.00 to 6.00 | – | –
3 | COC[C@@H]1CCCN1c1ncnc(Nc2cccc(CS(N)(=O)=O)c2)n1 [Compound B18, (S)-3-[(4-(2-(Methoxymethyl)pyrrolidin-1-yl)-1,3,5-triazin-2-yl)amino]benzenemethanesulfonamide] | 5.00 to 6.00 | < 5.00 | < 5.00 | < 5.00 | – | –
4 | NS(=O)(=O)Cc1cccc(Nc2ncnc(N3CCC[C@@H]3CO)n2)c1 [Compound B24, (R)-3-[(4-(2-(Hydroxymethyl)pyrrolidin-1-yl)-1,3,5-triazin-2-yl)amino]-benzenemethanesulfonamide] | 5.00 to 6.00 | 5.00 to 6.00 | < 5.00 | < 5.00 | – | –
5 | NS(=O)(=O)Cc1cccc(Nc2ncnc(N3CCC[C@H]3CO)n2)c1 [Compound B25, (S)-3-[(4-(2-(Hydroxymethyl)pyrrolidin-1-yl)-1,3,5-triazin-2-yl)amino]-benzenemethanesulfonamide] | 5.00 to 6.00 | 5.00 to 6.00 | < 5.00 | < 5.00 | – | –
6 | NS(=O)(=O)Cc1cccc(Nc2ncnc(N3CCC[C@@H]3CN3CCCC3)n2)c1 [Compound B31, (R)-3-[(4-(2-((Pyrrolidin-1-yl)methyl)pyrrolidin-1-yl)-1,3,5-triazin-2-yl)amino]benzenemethanesulfonamide] | 5.00 to 6.00 | < 5.00 | < 5.00 | < 5.00 | – | –
7 | COC[C@H]1CCN1c1ncnc(Nc2cccc(CS(N)(=O)=O)c2)n1 [Compound B35, (R)-3-[(4-(2-(Methoxymethyl)azetidin-1-yl)-1,3,5-triazin-2-yl)amino]-benzenemethanesulfonamide] | 6.00 to 7.00 | 5.00 to 6.00 | < 5.00 | < 5.00 | – | –
8 | NS(=O)(=O)Cc1cccc(Nc2ncnc(N3CCc4ccccc4C3)n2)c1 [Compound B40, 3-[(4-(3,4-Dihydroisoquinolin-2(1H)-yl)-1,3,5-triazin-2-yl)amino]-benzenemethanesulfonamide] | 5.00 to 6.00 | 5.00 to 6.00 | < 5.00 | – | – | –
9 | Nc1cccc2c1CCN(c1ncnc(Nc3cccc(CS(N)(=O)=O)c3)n1)C2 [Compound B41, 3-[(4-(5-Amino-3,4-dihydroisoquinolin-2(1H)-yl)-1,3,5-triazin-2-yl)amino]benzenemethanesulfonamide] | 5.00 to 6.00 | 5.00 to 6.00 | < 5.00 | – | – | –
10 | NS(=O)(=O)Cc1cccc(Nc2ncnc(N3CCCc4ccccc43)n2)c1 [Compound B42, 3-[(4-(3,4-Dihydroquinolin-1(2H)-yl)-1,3,5-triazin-2-yl)amino]-benzenemethanesulfonamide] | > 7.00 | > 7.00 | < 5.00 | 6.00 to 7.00 | – | –
11 | NS(=O)(=O)Cc1cccc(Nc2ncnc(N3CCc4sccc4C3)n2)c1 [Compound B43, 3-[(4-(6,7-Dihydrothieno[3,2-c]pyridin-5(4H)-yl)-1,3,5-triazin-2-yl)amino]benzenemethanesulfonamide] | 6.00 to 7.00 | 6.00 to 7.00 | 5.00 to 6.00 | – | – | –
12 | NS(=O)(=O)Cc1cccc(Nc2ncnc(N3CCn4ccnc4C3)n2)c1 [Compound B46, 3-[(4-(5,6-Dihydroimidazo[1,2-a]pyrazin-7(8H)-yl)-1,3,5-triazin-2-yl)amino]benzenemethanesulfonamide] | 5.00 to 6.00 | 5.00 to 6.00 | < 5.00 | – | – | –
13 | NS(=O)(=O)Cc1cccc(Nc2ncnc(N3Cc4cccnc4C3)n2)c1 [Compound B48, 3-[(4-(5H-Pyrrolo[3,4-b]pyridin-6(7H)-yl)-1,3,5-triazin-2-yl)amino]-benzenemethanesulfonamide] | 5.00 to 6.00 | 6.00 to 7.00 | < 5.00 | – | – | –
14 | NS(=O)(=O)Cc1cccc(Nc2ncnc(N3Cc4cncnc4C3)n2)c1 [Compound B50, 3-[(4-(5H-Pyrrolo[3,4-d]pyrimidin-6(7H)-yl)-1,3,5-triazin-2-yl)amino]-benzenemethanesulfonamide] | 6.00 to 7.00 | 5.00 to 6.00 | < 5.00 | – | – | –
15 | NS(=O)(=O)Cc1cccc(Nc2ncnc(N3CCc4ccccc43)n2)c1 [Compound B52, 3-[(4-(Indolin-1-yl)-1,3,5-triazin-2-yl)amino]-benzenemethane sulfonamide] | > 7.00 | > 7.00 | < 5.00 | 6.00 to 7.00 | – | –
16 | C[C@H]1CCCN1c1ncnc(Nc2cccc(CS(N)(=O)=O)c2)n1 [Compound B53, (S)-3-[(4-(2-Methylpyrrolidin-1-yl)-1,3,5-triazin-2-yl)amino]-benzenemethanesulfonamide] | > 7.00 | – | < 5.00 | 5.00 to 6.00 | 6.00 to 7.00 | 5.00 to 6.00

— patent US9226929B2, “Pharmaceutically active disubstituted triazine derivatives” (Bayer Intellectual Property GMBH, priority 2011, dated 2016)
